Data taken from the RepoRT retention time repository (doi:10.1021/acs.analchem.1c00972).

What was measured:
[1] = RP, Waters ACQUITY UPLC BEH C18, 100 × 1 mm, 1.7 µm, 50 °C, 0.3 mL/min, estimated dead time 0.17 min; A: water + 10 mM ammonium bicarbonate; B: 10% water + 90% methanol + 10 mM ammonium bicarbonate; gradient (min/%B) 0/0 15/100 21/100 22/0 30/0; conditions: stereoisomer not certain
[2] = RP, Waters ACQUITY UPLC BEH C18, 100 × 1 mm, 1.7 µm, 50 °C, 0.3 mL/min, estimated dead time 0.17 min; A: water + 0.1% formic acid + 20 mM ammonium formate; B: methanol + 0.1% formic acid + 20 mM ammonium formate; gradient (min/%B) 0/0 15/100 21/100 22/0 30/0; conditions: stereoisomer not certain

N#Cc1c(Cl)c(Cl)c(O)c(C(N)=O)c1Cl
LC retention time [1]: 8.11 min
LC retention time [2]: 10 min

CON=C(C(=O)O)c1ccccc1CON=C(C)c1cccc(C(F)(F)F)c1
LC retention time [1]: 14.5 min
LC retention time [2]: 15.6 min

Cn1c(=O)nc(NC(C)(C)C)[nH]c1=O
LC retention time [1]: 6.95 min
LC retention time [2]: 8.56 min

CCc1cccc(C)c1N(C(=O)CS(=O)(=O)O)C(C)C(=O)O (configuration not stated)
LC retention time [1]: 8.62 min
LC retention time [2]: 11 min

CCCN(CCOc1c(Cl)cc(Cl)cc1Cl)C(N)=O
LC retention time [1]: 16.2 min
LC retention time [2]: 15.9 min

CN1COCN(Cc2cnc(Cl)s2)C1=N
LC retention time [1]: 6.91 min
LC retention time [2]: 6.25 min

CN1COCN(Cc2cnc(Cl)s2)C1=O
LC retention time [1]: 9.5 min
LC retention time [2]: 9.42 min

CN1Cc2c(ccc3c2OCO3)C2C(O)Cc3cc4c(cc3C21)OCO4 (single isomer, unassigned; (+)) [(+)-Chelidonine]
LC retention time [1]: 15.3 min
LC retention time [2]: 9.34 min

C=C1C(=O)OC2C=C(C)CCC=C(C)CCC12 (single isomer, unassigned; (+)) [(+)-Costunolide]
LC retention time [1]: 15.3 min
LC retention time [2]: 15 min

COc1ccc2c(c1O)-c1c(OC)c(OC)cc3c1C(C2)N(C)CC3 (single isomer, unassigned; (+)) [(+)-Isocorydin]
LC retention time [1]: 13.6 min
LC retention time [2]: 8.65 min

COc1cc2c3c(c1OC)-c1ccccc1CC3N(C)CC2 (single isomer, unassigned; (-)) [(-)-Nuciferine]
LC retention time [1]: 15.6 min
LC retention time [2]: 10.5 min

CN1C2CC(OC(=O)C(CO)c3ccccc3)CC1C1OC12 (single isomer, unassigned; (-)) [(-)-Scopolamine]
LC retention time [1]: 11.2 min
LC retention time [2]: 7.05 min

O=C1CC2OCC=C3CN4CCC56c7ccccc7N1C5C2C3CC46 (single isomer, unassigned; (-)) [(-)-Strychnine]
LC retention time [1]: 12.3 min
LC retention time [2]: 7.73 min

CCC1CCCC(OC2CCC(N(C)C)C(C)O2)C(C)C(=O)C2=CC3C(C=C(C)C4CC(OC5OC(C)C(OC)C(OC)C5OC)CC43)C2CC(=O)O1 (single isomer, unassigned; isomer 2) [Spinosad (Isomer 2)]
LC retention time [1]: 19.2 min
LC retention time [2]: 16.1 min

CCC(=NOCC=CCl)C1=C(O)CC(C2CCOCC2)CC1=O (single isomer, unassigned; peak1) [Tepraloxydim Peak1]
LC retention time [1]: 9.25 min
LC retention time [2]: 14.7 min

NC(=Nc1ccccc1)Nc1ccccc1 [1,3-Diphenylguanidine]
LC retention time [1]: 10 min
LC retention time [2]: 8.76 min

Nc1cccc2c(N)cccc12 [1,5-Naphthalenediamine]
LC retention time [1]: 6.92 min
LC retention time [2]: 2.7 min

O=C(Nc1ccccc1)Nc1ccccc1Cl [1-(2-CHLOROPHENYL)-3-PHENYLUREA]
LC retention time [1]: 14.2 min
LC retention time [2]: 13.9 min

CNC(=O)Nc1ccc(Cl)c(Cl)c1 [1-(3,4-Dichlorphenyl)-3-methyl-Harnstoff]
LC retention time [1]: 13 min
LC retention time [2]: 12.8 min

CCC1(c2cccc(O)c2)CCCCN(C)C1 (configuration not stated) [Meptazinole]
LC retention time [1]: 14.4 min

C#CC1(O)CCC2C3CCc4cc(OC)ccc4C3CCC21C (configuration not stated) [Mestranol]
LC retention time [1]: 14.3 min

Cc1nnc(-c2ccccc2)c(=O)n1N [Metamitron]
LC retention time [1]: 9 min

Cc1cccc(C)c1N(Cn1cccn1)C(=O)CCl [Metazachlor]
LC retention time [1]: 13.3 min

CNC(=O)Oc1cc(C)c(SC)c(C)c1 [Methiocarb]
LC retention time [1]: 14.3 min

COC(=O)c1ccccc1S(N)(=O)=O [Methyl 2-(aminosulfonyl)benzoate]
LC retention time [1]: 8.1 min

CN(CCO)CCO [Methyl diethanolamine]
LC retention time [1]: 2.65 min

Cn1sc(Cl)cc1=O [Methylchloroisothiazolinone]
LC retention time [1]: 6.48 min

CCN(CC)CCNC(=O)c1cc(Cl)c(N)cc1OC [Metoclopramide]
LC retention time [1]: 12.3 min

CSc1nnc(C(C)(C)C)c(=O)[nH]1 [Metribuzin-desamino]
LC retention time [1]: 11.6 min

CNC(=O)C=C(C)OP(=O)(OC)OC [Monocrotophos (Crisodin)]
LC retention time [1]: 8.11 min

CN(C)C(=O)Nc1ccc(Cl)cc1 [Monuron]
LC retention time [1]: 11.3 min

O=C(O)CC[C@@H](C(=O)O)N(CC(=O)O)CC(=O)O [N,N-Bis(carboxymethyl)-L-glutamic acid]
LC retention time [1]: 13 min

CCCCCCCCCCCC[N+](C)(C)[O-] [N,N-Dimethyldodecylamine N-oxide]
LC retention time [1]: 16.8 min

CC(=O)Nc1c(C)n(C)n(-c2ccccc2)c1=O [N-Acetyl-4-aminoantipyrine]
LC retention time [1]: 7.94 min

CCNc1ccccc1 [N-Ethylaniline]
LC retention time [1]: 12.2 min

Cc1c(NC=O)c(=O)n(-c2ccccc2)n1C [N-Formyl-4-aminoantipyrine]
LC retention time [1]: 7.81 min

CC(=O)N(C)c1ccccc1 [N-Methylacetanilide]
LC retention time [1]: 11.2 min

CCN(CC)C(=O)C(C)Oc1cccc2ccccc12 (configuration not stated) [Napropamide]
LC retention time [1]: 15.1 min

CNC(=O)CSP(=O)(OC)OC [Omethoate]
LC retention time [1]: 6.12 min

NC(=O)N1c2ccccc2CC(=O)c2ccccc21 [Oxcarbazepine]
LC retention time [1]: 11.7 min

CCC(CC)Nc1c([N+](=O)[O-])cc(C)c(C)c1[N+](=O)[O-] [Pendimethalin]
LC retention time [1]: 17.5 min

CCOCCN(C(=O)CCl)C(=C(C)C)c1ccccc1 [Pethoxamid]
LC retention time [1]: 15.3 min

CCOc1ccc(NC(C)=O)cc1 [Phenacetin]
LC retention time [1]: 9.9 min

O=C1CC=Cc2ncc3ccccc3c21 [Phenanthridinon]
LC retention time [1]: 13.2 min

COC(=O)Nc1cccc(OC(=O)Nc2cccc(C)c2)c1 [Phenmedipham]
LC retention time [1]: 13.6 min

CCCCOCCOCCOCc1cc2c(cc1CCC)OCO2 [Piperonyl butoxide]
LC retention time [1]: 15.3 min

CNC(=O)Oc1cc(C)cc(C(C)C)c1 [Promecarb]
LC retention time [1]: 15 min

CC(C)N(C(=O)C(=O)O)c1ccccc1 [Propachlor oxanilic acid (OA)]
LC retention time [1]: 11.3 min

CC(C)N(C(=O)CCl)c1ccccc1 [Propachlor]
LC retention time [1]: 13.3 min

CNC(=O)Oc1ccccc1OC(C)C [Propoxur (baygon)]
LC retention time [1]: 11.9 min

C#CC(C)(C)NC(=O)c1cc(Cl)cc(Cl)c1 [Propyzamide]
LC retention time [1]: 14.6 min

CCCN(CCC)C(=O)SCc1ccccc1 [Prosulfocarb]
LC retention time [1]: 16.9 min

CC(C)(C)c1ccc(CSc2cnn(C(C)(C)C)c(=O)c2Cl)cc1 [Pyridaben]
LC retention time [1]: 18.3 min

Cc1cc(C)nc(Nc2ccccc2)n1 [Pyrimethanil]
LC retention time [1]: 14.2 min

CC(COc1ccc(Oc2ccccc2)cc1)Oc1ccccn1 (configuration not stated) [Pyriproxyfen]
LC retention time [1]: 17.4 min

On1ccccc1=S [Pyrithione]
LC retention time [1]: 9.52 min

CNC(=C[N+](=O)[O-])NCCSCc1ccc(CN(C)C)o1 [Ranitidine]
LC retention time [1]: 10.2 min

Oc1ccc(C=Cc2cc(O)cc(O)c2)cc1 [Resveratrol]
LC retention time [1]: 15.4 min

CC(N)C12CC3CC(CC(C3)C1)C2 (configuration not stated) [Rimantadin]
LC retention time [1]: 13.9 min

CCNc1nc(NCC)nc(OC)n1 [Simeton]
LC retention time [1]: 11.6 min

CC(C)NCC(O)c1ccc(NS(C)(=O)=O)cc1 (configuration not stated) [Sotalol]
LC retention time [1]: 7.74 min

CC(=O)SC1CC2=CC(=O)CCC2(C)C2CCC3(C)C(CCC34CCC(=O)O4)C12 (configuration not stated) [Spironolactone]
LC retention time [1]: 14.2 min

Cc1cc(C)nc(NS(=O)(=O)c2ccc(N)cc2)n1 [Sulfamethazine]
LC retention time [1]: 7.4 min

Cc1nnc(NS(=O)(=O)c2ccc(N)cc2)s1 [Sulfamethizol]
LC retention time [1]: 5.94 min

Nc1ccc(S(=O)(=O)Nc2ccccn2)cc1 [Sulfapyridine]
LC retention time [1]: 6.64 min

C=CC1C(OC2OC(CO)C(O)C(O)C2O)OC=C2C(=O)OCCC21 (configuration not stated) [Sweroside]
LC retention time [1]: 8.69 min

N#CSCSc1nc2ccccc2s1 [TCMTB]
LC retention time [1]: 14.1 min

CC(C)N(Cc1ccccc1)C(=O)C(C)(C)C [Tebutam]
LC retention time [1]: 14.3 min

CC(Cn1cnc2c(N)ncnc21)OCP(=O)(O)O (configuration not stated) [Tenofovir]
LC retention time [1]: 2.02 min

CCNc1nc(NC(C)(C)C)nc(OC)n1 [Terbumeton]
LC retention time [1]: 14.3 min

CCNc1nc(Cl)nc(NC(C)(C)C)n1 [Terbuthylazine]
LC retention time [1]: 14.4 min

CC12CCC(=O)C=C1CCC1C2CCC2(C)C(O)CCC12 (configuration not stated) [Testosterone]
LC retention time [1]: 14.6 min

FC(F)C(F)(F)OCC(Cn1cncn1)c1ccc(Cl)cc1Cl (configuration not stated) [Tetraconazole]
LC retention time [1]: 15.3 min

Cn1c(=O)c2[nH]cnc2n(C)c1=O [Theophyllin]
LC retention time [1]: 6.11 min

CC(=O)c1cc2c(cc1C)C(C)(C)C(C)CC2(C)C (configuration not stated) [Tonalide]
LC retention time [1]: 18.2 min

Cc1c(C(=O)c2c[nH]n(C)c2=O)ccc(S(C)(=O)=O)c1C1=NOCC1 [Topramezone]
LC retention time [1]: 7.42 min

COc1cccc(C2(O)CCCCC2CN(C)C)c1 (configuration not stated) [Tramadol]
LC retention time [1]: 14 min

CS(=O)(=O)OCC(O)C(O)COS(C)(=O)=O (configuration not stated) [Treosulfan]
LC retention time [1]: 3.77 min

CCCCOCCOCCOCCO [Triethylene Glycol Monobutyl Ether]
LC retention time [1]: 11.5 min

O=P(OCCCCl)(OCCCCl)OCCCCl [Tris(3-chloropropyl) phosphate]
LC retention time [1]: 14.6 min

CCC(C)(NC(=O)c1cc(Cl)c(C)c(Cl)c1)C(=O)CCl (configuration not stated) [Zoxamide]
LC retention time [1]: 16 min

Cc1ccccc1N [o-Toluidine]
LC retention time [1]: 9.21 min

Cc1ccccc1N=C=O [o-Tolyl isocyanate]
LC retention time [1]: 8.18 min
